Data taken from patent US7803792B2, “Quaternary ammonium compounds” (Asahi Kasei Pharma Corporation, priority 2002, dated 2010).

Legend:
human IBAT = molecular target: T1, human IBAT (Homo sapiens, UniProt Q12908); assay: In vitro assay of temporarily expressed human IBAT transporter using Cos 7 cells (Test Example 8); format: cell-based; settings: Cos 7 cells temporarily expressing human IBAT; [3H] taurocholate 8 μM, 37° C., 60 minutes
T1 construct: expressed in transfected cells; host or cells: Cos 7
T1 sequence (Q12908 1-348): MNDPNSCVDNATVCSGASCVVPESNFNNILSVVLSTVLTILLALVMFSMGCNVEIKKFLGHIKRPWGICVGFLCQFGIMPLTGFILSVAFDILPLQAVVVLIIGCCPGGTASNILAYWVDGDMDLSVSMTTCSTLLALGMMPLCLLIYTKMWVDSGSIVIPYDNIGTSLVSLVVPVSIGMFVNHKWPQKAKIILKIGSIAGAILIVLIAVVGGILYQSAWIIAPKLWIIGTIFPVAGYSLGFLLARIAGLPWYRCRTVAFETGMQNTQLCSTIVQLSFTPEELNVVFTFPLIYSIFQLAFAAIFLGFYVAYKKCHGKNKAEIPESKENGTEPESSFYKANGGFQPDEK
Summary of the method: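 Cos 7 cells transiently transfected with human or rat IBAT cDNA, assayed one day later in Hank's buffer with 25 mM glucose, 10 mM HEPES (pH 7.4) plus compound. Uptake of 8 μM [^3H]taurocholate over 60 min at 37 °C, stopped with 1 mM taurocholate washes; lysate radioactivity by scintillation counting.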

Caco 2 cells = assay: Toxicity with respect to alimentary canal: cytotoxicity to Caco 2, LDH activity (Test Example 12); format: cell-based, human; settings: LDH activity after 2 hours; for Toxicity (%) to Caco 2: relative to cytolytic agent = 100%
Procedure: Toxicity With Respect to Alimentary Canal
To evaluate the toxicity of the compounds of the present invention to the alimentary canal, the cytotoxicity to Caco 2, which is a human originated small intestine epithelial cell line, was tested by referring to the method of Bestwick C S et al. [Biochimica et Biophysica Acta 1474: 47-55, 1999].
That is, Caco 2 cells (purchased from ATCC) were inoculated on a 96-well plate such that there were 10,000 cells/well [MEM-E medium, 10% FBS (Fetal Bovine Serum), 1% NEAA (Non Essential Amino Acid) solution, (both manufactured by GIBCO PHARMACEUTICAL COMPANY)]. After culturing for 48 hours, the test compounds were diluted with the culture medium and added to the respective wells. After 2 hours, 50 μl of the culture broth was collected and the LDH activity in the collected culture broth was measured by using an LDH activity measuring kit (CytoTox 96 Non-Radioactive Cytotoxicity Assay, manufactured by PROMEGA CORPORATION). Relative activities were calculated assuming the LDH activity as 100% when the Caco 2 cells were treated with the cytolytic agent and the obtained relative activities were taken as cytotoxicities to Caco 2 cell.

[1] = test system: Cholic acid-loaded rat model; assay: Bile acid-decreasing effect in portal vein of rats loaded with cholic acid (Test Example 2); format: in vivo; settings: portal vein blood after 2 hours
Procedure: Bile Acid-Decreasing Effect in Portal Vein of Rats Loaded With Cholic Acid
In this test example, the test for confirming the bile acid-decreasing effect in portal vein of cholic acid-loaded rats was carried out according to the method described in Pharmacology and Therapeutics [Jpn Pharmacol. Ther., Vol. 24 Supplement, 1996, 103 (S-577)-110 (S-584)].
That is, 7 to 9 weeks old SD (IGS) rats were starved on the day before the test and thereafter. […] After 2 hours from the administration, a sample of blood was taken from a portal vein and total serum bile acid level was measured to study the effect of the test compound (n=6). Further, as a control group, a group (n=6) loaded with cholic acid (200 mg/kg) only was prepared and the same test procedure was followed. A commercially available kit (trade name: SOTANJUSAN-TEST WAKO-(SOTANJUSAN=total bile acid), manufactured by WAKO PURE CHEMICAL […], LTD.) was used for the measurement of bile acid. Assuming the value of the control group, which is a group in which no test compound was used, as 100%, the rate of decrease (percentage (%) of decrease) of the bile acid level when a fixed amount of the test compound was used was determined.

[2] = test system: bile duct partial ligation model; assay: Cholestasis-caused hepatopathy model, bile duct partial ligation, IBAT inhibiting compounds, blood after 24 hours (Test Example 13); format: in vivo, rat; settings: Table 17; 10 mg/kg oral; blood 24 hours after administration; N = 3, average ± standard error
Procedure: “Cholestasis-Caused Hepatopathy” Model (Bile Duct Partial Ligation Model)
In this test example, the model of cholestasis-caused hepatopathy was tested according to the method described in Test Example 5.
That is, the abdomens of 8 to 10 weeks old SD (IGS) male rats were cut open under anesthesia with pentobarbital and partial ligation surgery of the bile duct was carried out. After the surgery, 200 mg/kg of bile acid and an IBAT inhibiting compound were forcibly orally administered to the rats (each n=3). As a control group, physiological saline […] was administered (n=3). To observe the effect of the partial ligation surgery, a sham group (the abdomen was cut open under anesthesia with pentobarbital but partial ligation surgery of the bile duct was not carried out) and an untreated group were established (each n=3). After 24 hours from the administration a blood sample was taken from the abdominal aorta and AST, ALT, and ALP in the blood were measured using the method described in Test Example 5.

[3] = 0.1 mg/kg oral with cholic acid 200 mg/kg, HCO-60 0.1%
[4] = 0.3 mg/kg oral with cholic acid 200 mg/kg, HCO-60 0.1%
[5] = 0.1 mg/kg oral with cholic acid 200 mg/kg, Tween 20 0.05%

Structure (SMILES) | IC50 (human IBAT) | Toxicity (%) to Caco 2 (Caco 2 cells; 3 μM) | Toxicity (%) to Caco 2 (Caco 2 cells; 10 μM) | Toxicity (%) to Caco 2 (Caco 2 cells; 30 μM) | Rate of decrease (%) of bile acid [1, 3] | further results
CCCCC1(CCCC)CS(=O)(=O)c2ccc(N(C)C)cc2C(c2cccc(NC(=S)Nc3ccc(C[N+](C)(C)CCCC)cc3)c2)N1.[Br-] (stereo not drawn) [Example 3409] | 45 nM | <1% | <1% | <1% | 28% | –
CCCCC1(CCCC)CS(=O)(=O)c2ccc(N(C)C)cc2C(c2cccc(NC(=S)Nc3ccc(C[n+]4cccc(CC#N)c4)cc3)c2)N1.[Br-] (stereo not drawn) [Example 3759] | – | <1% | <1% | <1% | – | Rate of decrease (%) of bile acid [1, 4]: 36%
CCCCC1(CCCC)CS(=O)(=O)c2ccc(N(C)C)cc2C(c2cccc(NC(=S)Nc3cccc(C[N+](C)(C)Cc4ccccc4)c3)c2)N1.[Br-] (stereo not drawn) [Example 4257] | – | – | – | – | 30% | –
CCCCC1(CCCC)CS(=O)(=O)c2ccc(N(C)C)cc2C(c2cccc(NC(=S)NCCCCC[N+](C)(C)Cc3ccccc3)c2)N1.[Br-] (stereo not drawn) [Example 1178] | 93 nM | – | – | – | 18% | –
CCCCC1(CCCC)CS(=O)(=O)c2ccc(N(C)C)cc2C(c2cccc(NC(=S)Nc3ccccc3C[N+]34CCC(CC3)CC4)c2)N1.[Br-] (stereo not drawn) [Example 4905] | – | – | – | – | 28% | –
CCCCC1(CCCC)CS(=O)(=O)c2ccc(N(C)C)cc2C(c2cccc(NC(=S)Nc3ccc(C[n+]4ccc(CC)cc4)cc3)c2)N1.[Br-] (stereo not drawn) [Example 3710] | 52 nM | <1% | <1% | <1% | 20% | –
CCCCC1(CCCC)CS(=O)(=O)c2ccc(N(C)C)cc2C(c2ccc(NC(=S)Nc3ccc(C[N+](C)(C)Cc4ccccc4)cc3)cc2)N1.[Br-] (stereo not drawn) [Example 5405, Benzyl-(4-{3-[4-(3,3-dibutyl-7-dimethylamino-1,1-dioxo-2,3,4,5-tetrahydro-1,4-benzothiazepin-5-yl)phenyl]thioureido}-benzyl)dimethylammonium bromide] | – | – | – | – | 16% | –
CCCCC1(CCCC)CS(=O)(=O)c2ccc(N(C)C)cc2C(c2cccc(NC(=S)Nc3ccc(C[n+]4ccc(C#N)cc4)cc3)c2)N1.[Br-] (stereo not drawn) [Example 3753] | – | – | – | – | – | Rate of decrease (%) of bile acid [1, 4]: 8.5%
CCCCC1(CCCC)CS(=O)(=O)c2ccc(N(C)C)cc2C(c2cccc(NC(=S)NCCC[N+](C)(C)Cc3ccccc3)c2)N1.[Br-] (stereo not drawn) [Example 425] | 170 nM | – | – | – | – | Rate of decrease (%) of bile acid [1, 5]: 21%
CCCCC1(CCCC)CS(=O)(=O)c2ccc(N(C)C)cc2C(c2cccc(NC(=S)Nc3ccc(C[N+]4(Cc5ccccc5)CCC(CCO)CC4)cc3)c2)N1.[Br-] (stereo not drawn) [Example 3608] | 59 nM | <1% | <1% | <1% | 43% | –
CCCCC1(CCCC)CS(=O)(=O)c2ccc(N(C)C)cc2C(c2ccc(OCc3ccc(C[N+]45CCN(CC4)CC5)cc3)cc2)N1.[Cl-] (stereo not drawn) [Comparative Example 2, 1-{4-[4-(3,3-Dibutyl-7-dimethylamino-1,1-dioxo-2,3,4,5-tetrahydro-1,4-benzothiazepin-5-yl)phenoxymethyl]benzyl}-4-aza-1-azoniabicyclo[2.2.2]octane chloride] | – | – | – | – | – | cytotoxicity to Caco 2 cells (Caco 2 cells; in words): showed cytotoxicity to small intestine epithelial cell line at low concentrations; ALP [2]: 1266 ± 160 IU/L; ALT [2]: 281 ± 103 IU/L; AST [2]: 547 ± 159 IU/L
CCCCC1(CCCC)CS(=O)(=O)c2ccc(N(C)C)cc2C(c2cccc(NC(=S)Nc3ccc(C[N+]4(Cc5ccccc5)CCC(CO)CC4)cc3)c2)N1.[Br-] (stereo not drawn) [Example 3607] | 41 nM | <1% | <1% | <1% | 36% | –
CCCCC1(CCCC)CS(=O)(=O)c2ccc(N(C)C)cc2C(c2cccc(NC(=S)NCCCC[N+](C)(C)Cc3ccccc3)c2)N1.[Br-] (stereo not drawn) [Example 801] | – | – | – | – | 33% | –

Further lines, with some results ahead:

IC50 (human IBAT) | Structure (SMILES) | Toxicity (%) to Caco 2 (Caco 2 cells; 3 μM) | Toxicity (%) to Caco 2 (Caco 2 cells; 10 μM) | Toxicity (%) to Caco 2 (Caco 2 cells; 30 μM) | Rate of decrease (%) of bile acid [1, 3] | further results
62 nM | CCCCC1(CCCC)CS(=O)(=O)c2ccc(N(C)C)cc2C(c2cccc(NC(=S)Nc3ccc(CC[N+](C)(C)Cc4ccccc4)cc3)c2)N1 (stereo not drawn) [Example 5043] | <1% | <1% | <1% | – | Rate of decrease (%) of bile acid [1, 4]: 39%
91 nM | CCCCC1(CCCC)CS(=O)(=O)c2ccc(N(C)C)cc2C(c2cccc(NC(=S)Nc3cccc(C[N+]4(Cc5ccccc5)CCC(CO)CC4)c3)c2)N1 (stereo not drawn) [Example 4424] | – | – | – | 17% | –
43 nM | CCCCC1(CCCC)CS(=O)(=O)c2ccc(N(C)C)cc2C(c2cccc(NC(=S)CCCCC[N+](C)(C)Cc3ccccc3)c2)N1 (stereo not drawn) [Example 3835] | <1% | <1% | <1% | – | Rate of decrease (%) of bile acid [1, 5]: 23%
48 nM | CCCCC1(CCCC)CS(=O)(=O)c2ccc(N(C)C)cc2C(c2cccc(NC(=S)Nc3ccc(C[n+]4ccc5ccccc5c4)cc3)c2)N1.[Br-] (stereo not drawn) [Example 3783] | <1% | <1% | <1% | 16% | –
63 nM | CCCCC1(CCCC)CS(=O)(=O)c2ccc(N(C)C)cc2C(c2cccc(NC(=S)Nc3cccc(C[N+]45CCC(CC4)CC5)c3)c2)N1 (stereo not drawn) [Example 4512] | – | – | – | 37% | –
76 nM | CCCCC1(CCCC)CS(=O)(=O)c2ccc(N(C)C)cc2C(c2cccc(NC(=S)Nc3ccc(CC[N+]45CCC(CC4)CC5)cc3)c2)N1 (stereo not drawn) [Example 5298] | <1% | <1% | <1% | – | Rate of decrease (%) of bile acid [1, 4]: 40%
89 nM | CCCCC1(CCCC)CS(=O)(=O)c2ccc(N(C)C)cc2C(c2cccc(NC(=S)Nc3cccc(C[N+]4(Cc5ccccc5)CCC(CCO)CC4)c3)c2)N1 (stereo not drawn) [Example 4425] | – | – | – | 22% | –
